O=Cc1ccc(O)c(Br)c1
solubility (mole fraction)
Conditions | 278.15 K | 283.15 K | 288.15 K | 293.15 K | 298.15 K | 303.15 K | 308.15 K | 313.15 K | 318.15 K | 323.15 K
in 1,4-dioxane | – | – | 0.016 | 0.0188 | 0.022 | 0.0255 | 0.0297 | 0.0345 | 0.0402 | 0.0471
in DMF | 0.0129 | 0.0148 | 0.0171 | 0.02 | 0.0236 | 0.0275 | 0.0321 | 0.0372 | 0.0426 | 0.0488
in DMSO | – | – | – | 0.0177 | 0.0202 | 0.0235 | 0.0278 | 0.0332 | 0.0396 | 0.0467
in acetonitrile | 0.00714 | 0.00815 | 0.00947 | 0.0111 | 0.013 | 0.0152 | 0.0179 | 0.0207 | 0.0238 | 0.0273
in cyclohexane | – | 0.000283 | 0.000369 | 0.000478 | 0.000609 | 0.000766 | 0.000949 | 0.00115 | 0.00139 | 0.00167
in ethanol | 0.00755 | 0.00852 | 0.00981 | 0.0116 | 0.0137 | 0.0161 | 0.0188 | 0.0219 | 0.0254 | 0.0293
in ethyl acetate | 0.00956 | 0.011 | 0.0127 | 0.015 | 0.0176 | 0.0209 | 0.0244 | 0.0287 | 0.0332 | 0.0384
in ethylene glycol | 0.00584 | 0.00666 | 0.00772 | 0.00903 | 0.0107 | 0.0126 | 0.0149 | 0.0177 | 0.0211 | 0.0252
in isobutanol | 0.00978 | 0.0112 | 0.0131 | 0.0155 | 0.0183 | 0.0215 | 0.0251 | 0.0293 | 0.0336 | 0.0386
in isopropanol | 0.0079 | 0.00892 | 0.0104 | 0.0123 | 0.0144 | 0.0171 | 0.0201 | 0.0235 | 0.0272 | 0.0317
in methanol | 0.00568 | 0.00645 | 0.00751 | 0.00881 | 0.0103 | 0.0121 | 0.0142 | 0.0165 | 0.019 | 0.0221
in n-butanol | 0.0106 | 0.0122 | 0.0144 | 0.0168 | 0.0197 | 0.023 | 0.0269 | 0.0313 | 0.0364 | 0.0423
in n-octanol | 0.012 | 0.0138 | 0.0162 | 0.0192 | 0.0226 | 0.0267 | 0.0314 | 0.0365 | 0.0427 | 0.0498
in n-pentanol | 0.0115 | 0.0132 | 0.0153 | 0.0181 | 0.0215 | 0.0252 | 0.0295 | 0.0343 | 0.0401 | 0.0467
in n-propanol | 0.00865 | 0.01 | 0.0117 | 0.0138 | 0.0162 | 0.0191 | 0.0225 | 0.0264 | 0.0308 | 0.0361
in water | 5.93e-05 | 7.11e-05 | 9.02e-05 | 0.000116 | 0.00015 | 0.000196 | 0.00025 | 0.000314 | 0.000395 | 0.000493
